Laboratory results: patent US20080026409A1, “SALT-SENSITIVE HYPERTENSION” (THE BOARD OF TRUSTEES OF THE UNIVERSITY OF ILLINOIS, priority 2006, published 2008)
Entries after “also recorded” stand apart in the source; their conditions may differ.

Experiments:
[1] = test system: Na/K ATPase in LLCPK1 cells; assay: Na/K ATPase distribution by confocal immunofluorescence; type: cell-based; conditions: for APN induced endocytosis of Na/K ATPase: LLCPK1 cells with APN overexpression plus siRNA; for Na/K ATPase distribution (endocytosis, membrane abundance): LLCPK1 cells, Ang IV 10 nM×12 hours, oubain 50 nM×12 hours (control)
Excerpt: FIGS. 6A-6G are scans of photographs showing Na/K ATPase distribution in LLCPK1 cells by immuno fluorescence (complementary to FIG. 5): Confocal images from z-stacked permeabilized LLCPK1 cells probed for Na/K ATPase using monoclonal Ab against the alpha subunit of Na/K ATPase (1:100). FIG. 6A: Control. […] All images were generated with a Zeiss LSM 410 laser scanning confocal microscope at 100×. All settings were the same for all images obtained. Images are representative of experiments repeated twice. Arrows: endocytosis of Na/K ATPase.
Confocal microscopy: Confocal fluorescence microscopy is performed using a Zeiss LSM 510 confocal microscope and Anti alphal Na/K ATPase mAb (Upstate/ Millipore, Billerica, Mass.) to further confirm the internalization of surface Na/K ATPase.

[2] = test system: basolateral Na/K ATPase in LLCPK1 cells; assay: Basolateral Na/K ATPase expression by surface biotinylation and Western blot; type: cell-based; conditions: for expression of basolateral Na/K ATPase: LLCPK1 cells, Ang IV 10^−9 M×20 hours, siRNA transfection
Method: Representative autoradiograph of Na-K ATPase as detected by Western blot represented above bar-graph. Upper panel: representative autoradiograph of Na-K ATPase as detected by Western blot. Overexpression of APN( APN Over Exp) n=3 (except Ang IV, n=6) * P<0.05 compared to control paired t-test) Complementary measurements of Na/K ATPase expression by confocal microscopy-FIG. 5).
(§1) Na/K ATPase expression and activity are measured by basolateral surface biotinylation and oubain-inhibitable ATPase activity, respectively, in cells cultured in Transwell plates.
In complementary experiments, basolateral Na/K ATPase expression in cultured cells is measured both by biotinylation and confocal microscopy. Biotinylation technique to assess the surface Na/K ATPase protein has already been established in our laboratory. Biotinylation is performed as using NHS-S-S-biotin (Pierce). Labeling for 20 min at the basolateral domain in cells grown in transwells at 4° C. to stop endocytosis and internalization of antigen. Biotinylated antigens are immunoprecipitated with streptavidin agarose and released by incubation in 10 mM dithiothreitol, reconstituted in Laemmli buffer, subjected to SDS-PAGE and then probed with Anti alphal Na/K ATPase mAb (Upstate/ Millipore, Billerica, Mass.). For analysis, surface Na/K ATPase is compared to total protein as determined by immunoblotting in solubilized cell extract and with the amount of Na/K ATPase not removed by avidin precipitation method (intracellular pool).

[3] = test system: LLC-PK cells; assay: Quantitative immunohistochemistry for APN and Ang IV after siRNA; type: cell-based; conditions: siRNA 2 μg per well, 48 hours, Q-IHC, P<0.05 vs control
Method: The top panel is a scan of photographs showing quantitative immunohistochemistry (QIH-C) for APN and Ang IV. Cells were grown in 4 well chamber plates. For siRNA, each well was incubated (37° C. for 5 hours) with 1 ml media containing 4 μl of Enhancer R, 4 μl of RNAi (2 μg), 8 μl of Transmessenger Reagent and […] of optimem followed by 0.5 ml of optimem+20% FBS for 48 hours. The cells were fixed with 3.7% formaldehyde and stained using DakoCytomation staining kit. The amount of DAB staining was measured using Q-IHC. N=10 fields analyzed/transfection×2 transfections P<0.05 vs control. Upper panel: representative fields. Positive staining-arrows.
APN abundance regulates Ang IV: To initially address the hypothesis that the mechanism for APN-mediated regulation of Na/K ATPase is via Ang IV signaling, the effect of suppression of endogenous APN expression with siRNA on Ang IV abundance was measured in LLC-PK cells (FIG. 3A-3B). siRNA to APN decreased both APN and Ang IV expression, indicating the Ang IV level was regulated by APN.
For quantitative immunohistochemistry, a standard three-stage indirect immunoperoxidase technique is used on formalin fixed kidney sections. Images are acquired using a 4.9 million pixel digital scanning 24-bit RGB camera, saved in TIFF format, and used for subsequent analysis. […]

[4] = test system: rat proximal tubules; conditions: fresh suspensions of control or nystatin-stimulated rat proximal tubules; cited from earlier work
[5] = test system: rat; conditions: infusion into the renal artery, cited from earlier work
[6] = test system: primary cultures of rat renal epithelial cells; conditions: cited from earlier work
[7] = test system: HK-2 cells; conditions: cited from earlier work
[8] = test system: Na/K ATPase in LLCPK1 cells; assay: Na/K ATPase activity (oubain-inhibitable ATPase) in cultured cells; type: cell-based; conditions: FIG. 7, n=1 (triplicate)
Method: FIG. 7 is a graph showing Na/K ATPase activity parallels changes in basolateral Na/K ATPase expression in LLCPK1 cells treated with siRNA to APN and AT4; Ang IV and oubain (control). n=1 (triplicate). siRNA to APN (siRNA-APN); siRNA to AT4 (siRNA-AT4); APN over-expression (APN o/e).
as §1
Measurement of Na/KATPase expression and activity: Na/K ATPase activity in membranes isolated from proximal tubule fractions and membranes from cultured/transfected cell lines is measured as the rate of inorganic phosphate, using coloring reagent (10% ammonium molybdate in 10 N sulfuric acid +ferrous sulfate) released in the presence or absence of oubain.

[9] = test system: Dahl SS/Jr rats on 8% NaCl; assay: Radiotelemetric blood pressure monitoring during Ang IV infusion; type: in vivo, rat; conditions: 10 day Ang IV infusion 7 pmol/minute, n=4, P<0.05
Method: Radiotelemetric blood pressure monitoring with 10 day Ang IV (7 pmol/minute) infusion (===). Systolic BP (peak) 157-188 mmHg. BP for each rat normalized to day 9, each BP averaged during 12 hour dark cycle (rats maintained 12 hours light/dark cycle). Day 0—surgical implantation of pressure transducer and infusion pump. n =4,- - - less than days 6-9 (initial infusion of Ang IV) and 16-24 (P<0.05).
Continuous arterial blood pressure monitoring is by radiotelemetry in freely moving instrumented rats. An implantable osmotic pump is used for infusion experiments.
First, for tail-cuff measurements, the rats must be restrained which falsely elevates the blood pressure due to adrenergic storm. With radiotelemetry, the rats are unrestrained and blood pressures are measured continuously in freely moving rats in large cages. […] Third, with tail cuff, blood pressures are measured once or at most twice a day, whereas, with radiotelemetry, blood pressures are measured continuously, allowing assessment of diurnal patterns and the time-integral of overall blood pressure burden. […]
Survival Surgery and Radiotelemetry Measurement of Central Aortic Pressure. […] Once the transmitter is activated by a special magnet, measurements of pulsatile central aortic blood pressure is recorded continuously by placing an individual receiver under each rat's cage. […]

[10] = test system: Dahl SR rats; assay: Infusion of Anpep inhibitor, salt-sensitivity by radiotelemetric blood pressure; type: in vivo, rat; conditions: preliminary experiments
Method: For these experiments, continuous radiotelemetric blood pressure monitoring is performed in rats instrumented with transducers and osmotic mini-pumps.

For “5′-AACCTGAGTCAGGACGTAAT-3′; SEQ ID NO: 4 [siRNA to AT4 receptor]”, the “APN induced endocytosis of Na/K ATPase” value [1] was “partially blocks”, the “APN induced endocytosis of Na/K ATPase” value ([1]; listed as siRNA to the AT4 receptor) was “abrogrates” and the “regulation (reduction) of Na/K ATPase expression by Ang IV” value ([2]; LLCPK1 cells treated with siRNA and Ang IV) was “partially abolishes; also recorded: abrogated”. The “expression of basolateral Na/K ATPase” value [2] was “increase”.

For “5′-UCGGGCACAGAUCAUUAUUd(TT)-3′; SEQ ID NO: 3 [siRNA to APN]”, the APN expression [3] was “reduces; also recorded: decreased”, the “Ang IV expression” value [3] was “reduces; also recorded: decreased” and the “expression of basolateral Na/K ATPase” value [2] was “increased”.

In the case of `CC[C@H](C)[C@H](NC(=O)[C@H](Cc1ccc(O)cc1)NC(=O)[C@@H](N)C(C)C)C(=O)N[C@@H](Cc1cnc[nH]1)C(=O)N1CCC[C@H]1C(=O)N[C@@H](Cc1ccccc1)C(=O)O` [Ang IV, V-Y-I-H-P-F (SEQ ID NO: 2)], the “transcellular Na+ transport (proximal tubule O2 consumption rates)” value [4] is listed as “decreases”, the cortical blood flow ([5]; rat) is listed as “increases cortical blood flow” and the Na excretion [5] is listed as “increases urinary Na excretion; also recorded: promotes Na excretion”. The blood pressure [5] was “lowers blood pressure”, the “transcellular Na transport” value [6] was “dose-dependent decrease” and the “Na/K ATPase distribution (endocytosis, membrane abundance)” value [1] was “endocytosis and reduced membrane abundance of Na/K ATPase”. The “expression of basolateral Na/K ATPase” value [2] was “tend to reduce; also recorded: reduced”, the “Na uptake (reflecting decreased flux)” value [7] was “increases Na uptake” and the “activity of basolateral Na/K ATPase” value [8] was “reduce”. The “blood pressure (BP)” value [9] was “reduces blood pressure; also recorded: lowers arterial blood pressure”.

For `CC(C)C[C@H](NC(=O)C(O)[C@H](N)Cc1ccccc1)C(=O)O` (stereo partly drawn) [bestatin, (2S,3R)-3-amino-2-hydroxy-4-phenylbutanoyl-L-leucine], the salt-sensitivity [10] was “induced sensitivity”.

With `C[C@@H]1O[C@@H](O[C@H]2C[C@@H](O)[C@]3(CO)[C@H]4[C@H](O)C[C@]5(C)[C@@H](C6=CC(=O)OC6)CC[C@]5(O)[C@@H]4CC[C@]3(O)C2)[C@H](O)[C@H](O)[C@H]1O` [oubain] the “Na/K ATPase distribution (endocytosis, membrane abundance)” value [1] was “endocytosis”.
